In patent publication US7008941B2, “Reverse-turn mimetics and methods relating thereto” (Myriad Genetics, Inc., priority 2001, dated 2006):

Tests used:
α4β1 integrin = target: T1, α4β1 integrin (Homo sapiens, UniProt P05556+P13612); assay: Antagonism of binding of CS1 peptide to α4β1 integrin (calcein-labelled Ramos cell adhesion to biotinylated CS1 plate); type: cell-based; conditions: Ramos cells
T1 construct: Harvested Ramos cells; endogenous in cells; host or cells: Ramos cells
Experimental: In brief, 100 μL/well of a solution of biotinylated CS1 peptide (1 mg/100 mL of phosphate buffered saline (PBS)) was incubated in a NeutrAvidin plate (Pierce) for 1 h at room temperature. The plate was then washed 3× with distilled water and treated with 200 μL of blocking buffer (3% BSA in PBS) for at least 4 h. Blocked plates were washed as above. Harvested Ramos cells (10^7/mL) were resuspended in PBS containing 10 μL of calcein AM/mL and incubated 30 min in the dark. This suspension was diluted with 45 mL PBS and the cells harvested by centrifugation and aspiration. The cells were resuspended in binding buffer (˜5×10^5/mL). If cell lysis was to be monitored ethidium homodimer was added to the buffer to a final concentration of 5 μM. A solution (10 μL) of compound to be tested or control peptide was added to appropriate wells followed by 90 μL of the cell suspension. The plate was incubated at 37° C. for 1 h. […] Otherwise, the plate was washed 3×, 50 μL of lysis buffer was added to each well, the plate rocked in the dark for 10 min, and the fluorescence monitored at 485 nm excitation and 535 nm emission.

neurokinin-1 receptor = neurokinin-1 receptor (Homo sapiens, UniProt P25103); assay: Tachykinin antagonism assay: inhibition of Substance P-induced calcium mobilization (FLIPR) in U373 MG cells; type: cell-based; conditions: Substance P 1 nM
neurokinin-1 receptor, sequence (P25103 whole entry): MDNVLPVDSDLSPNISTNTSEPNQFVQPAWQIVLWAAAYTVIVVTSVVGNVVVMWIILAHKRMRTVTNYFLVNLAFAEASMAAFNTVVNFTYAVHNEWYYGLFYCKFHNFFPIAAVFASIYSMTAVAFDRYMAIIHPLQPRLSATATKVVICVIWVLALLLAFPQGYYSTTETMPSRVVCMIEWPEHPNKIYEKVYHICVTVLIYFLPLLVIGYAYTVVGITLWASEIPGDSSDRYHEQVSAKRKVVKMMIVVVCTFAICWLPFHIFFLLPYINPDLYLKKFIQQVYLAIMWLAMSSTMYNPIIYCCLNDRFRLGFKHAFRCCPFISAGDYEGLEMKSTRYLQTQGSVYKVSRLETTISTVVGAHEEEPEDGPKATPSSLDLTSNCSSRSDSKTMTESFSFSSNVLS
Experimental: An assay measuring the ability of compounds 1–50 to antagonize binding of substance P peptide to its receptor neurokinin-1 was performed. Substance P is known to act upon cells via the mobilization of calcium (Bordey et al., Glia 11: 277–283, 1994). The compounds were assessed for their ability to inhibit the action of Substance P with the use of a Fluorescent Imaging Plate Reader (FLIPR) from Molecular Devices (Shroeder et al., J. Biomol. Screening 1: 75–80, 1996; U.S. Pat. No. 5,112,134; U.S. Pat. No. 4,968,148). […] This dye is similar to Fluo-3, Fluo-4, and Calcium Green dyes used by other researchers (Lin et al., Biotechniques 26: 318–326, 1999) in that it increases in fluorescence in the presence of calcium; the Molecular Devices version is preferable because the cells need not be washed following staining with the dye. […] Substance P was added in Hank's salt solution with 1% BSA to give a final concentration of 1 nM and the resultant change in fluorescence intensity was monitored for thirty seconds with an excitation wavelength of 480 nm and an emission of 515 nm. Some wells were maintained as controls which were not incubated with any compound, and the peak fluorescence readings resulting from the wells which received compounds were compared to these control wells in order to determine the degree of inhibition.

T1 sequence (P13612 34-1032): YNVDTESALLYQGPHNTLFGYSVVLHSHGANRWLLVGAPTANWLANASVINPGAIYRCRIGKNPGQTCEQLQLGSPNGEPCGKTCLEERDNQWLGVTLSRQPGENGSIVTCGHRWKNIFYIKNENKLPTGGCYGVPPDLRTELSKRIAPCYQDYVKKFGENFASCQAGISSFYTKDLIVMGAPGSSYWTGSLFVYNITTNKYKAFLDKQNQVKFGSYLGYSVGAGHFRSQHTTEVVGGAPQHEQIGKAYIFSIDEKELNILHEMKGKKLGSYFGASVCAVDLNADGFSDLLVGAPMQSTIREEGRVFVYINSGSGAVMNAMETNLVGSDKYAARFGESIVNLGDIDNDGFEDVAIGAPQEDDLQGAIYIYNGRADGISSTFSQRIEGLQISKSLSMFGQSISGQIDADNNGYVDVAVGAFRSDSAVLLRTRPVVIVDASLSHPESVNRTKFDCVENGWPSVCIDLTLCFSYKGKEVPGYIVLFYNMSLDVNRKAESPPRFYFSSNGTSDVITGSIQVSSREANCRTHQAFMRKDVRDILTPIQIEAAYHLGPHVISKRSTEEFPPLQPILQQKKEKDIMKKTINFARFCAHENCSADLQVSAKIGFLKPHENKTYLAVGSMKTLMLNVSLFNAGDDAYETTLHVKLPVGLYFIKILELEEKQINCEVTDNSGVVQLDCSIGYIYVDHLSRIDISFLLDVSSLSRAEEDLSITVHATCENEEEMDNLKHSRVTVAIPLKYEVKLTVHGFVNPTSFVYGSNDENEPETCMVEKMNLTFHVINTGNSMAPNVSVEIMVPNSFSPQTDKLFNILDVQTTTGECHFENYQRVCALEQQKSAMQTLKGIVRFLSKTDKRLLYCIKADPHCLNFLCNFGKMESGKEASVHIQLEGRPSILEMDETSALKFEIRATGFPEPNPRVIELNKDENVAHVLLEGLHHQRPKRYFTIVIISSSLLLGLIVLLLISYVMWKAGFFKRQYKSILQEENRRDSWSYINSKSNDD
T1 sequence (P05556 21-798): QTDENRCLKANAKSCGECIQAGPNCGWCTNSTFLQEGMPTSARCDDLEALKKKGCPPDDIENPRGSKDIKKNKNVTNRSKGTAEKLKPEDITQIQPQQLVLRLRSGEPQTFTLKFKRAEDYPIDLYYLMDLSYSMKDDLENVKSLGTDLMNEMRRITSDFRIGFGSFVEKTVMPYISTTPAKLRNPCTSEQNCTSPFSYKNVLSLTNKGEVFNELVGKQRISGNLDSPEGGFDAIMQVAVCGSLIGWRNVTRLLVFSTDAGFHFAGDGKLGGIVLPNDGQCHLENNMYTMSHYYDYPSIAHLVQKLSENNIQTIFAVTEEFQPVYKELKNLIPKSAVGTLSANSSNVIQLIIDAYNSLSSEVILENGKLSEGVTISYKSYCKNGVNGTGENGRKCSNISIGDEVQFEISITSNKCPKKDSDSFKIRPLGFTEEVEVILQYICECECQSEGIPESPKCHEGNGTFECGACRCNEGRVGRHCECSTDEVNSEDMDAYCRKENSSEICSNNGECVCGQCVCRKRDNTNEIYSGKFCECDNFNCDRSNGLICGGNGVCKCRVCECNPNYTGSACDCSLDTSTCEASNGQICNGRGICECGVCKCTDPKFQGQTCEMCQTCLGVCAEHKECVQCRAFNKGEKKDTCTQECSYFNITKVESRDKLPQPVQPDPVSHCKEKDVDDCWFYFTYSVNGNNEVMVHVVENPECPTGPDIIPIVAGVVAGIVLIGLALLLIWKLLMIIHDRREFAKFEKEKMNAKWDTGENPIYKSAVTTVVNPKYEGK

inhibition at 100 µM (α4β1 integrin)	inhibition at 20 µM (neurokinin-1 receptor)	Structure (SMILES)
> 50%	> 25%	CC12OC(=O)[C@H](Cc3ccccc3)N1C(=O)[C@H]1CCCN1C2=O (stereo partly drawn) [Compound 45]
> 50%	–	O=C1C[C@H](Cc2ccccc2)N2C(=O)[C@H](Cc3ccc(O)cc3)N(CC3CCCCC3)C(=O)C2O1 (stereo partly drawn) [Compound 47]
